Measured values: patent US10398727B2, “Methods for the treatment and prevention of asbestos-related diseases” (University of Technology, Sydney, priority 2014, dated 2019)

Tested on: crocidolite-induced mesothelioma in MexTAg299 transgenic mice
Test: Effect of CM on asbestos-induced mesothelioma in MexTAg299 mice (Example 2)
Conditions: mouse, in vivo
Description: MexTAg299 transgenic mice are suitable for testing asbestos-induced mesothelioma with 100% incidence. MexTAg mice exposed to asbestos develop cancer that faithfully replicates key features of the pathogenesis of human mesothelioma.
Controls were normal saline (0.9%) or CM at 90 mg/kg (3 mice each).

Substance: clinoptilolite [CM]
- Mesothelioma (number of mice): 0
